Patent US20100273205A1, “Magnetic resonance imaging contrast agents” (priority 2005, published 2010)

System: formalin-fixed visual cortex (gray and white matter)
Assay: LFB relaxation enhancement, inversion-recovery spin-echo and multi-echo spin-echo MR at 14T
Parameters: species or system human
Settings: LFB in 95% ethanol then Li2CO3, versus formalin control
Protocol: Formalin-fixed samples of visual cortex, approximately 1 cm in thickness, were immersed in a mixture of LFB dissolved in a solvent of 95% ethanol (500 mg LFB in 50 ml ethanol) for durations between 48 hours and 3 months. Following LFB staining, the tissue was rinsed in 70% ethanol, rinsed in distilled water, and then immersed in an aqueous solution of lithium carbonate(Li2CO3) (0.25 g Li2CO3 in 500 mL water) until gray-white matter contrast had increased, ranging between approximately 5 minutes and 24 hours. Next, the tissue was rinsed twice more in 70% ethanol and lastly in distilled water. Additional control samples were prepared with 1) formalin only or 2) 95% ethanol followed by immersion in Li2CO3.
Tissue samples were blotted and then immersed in perfluoropolyether (Fomblin, Ausimont USA, Thorofare, N.J.) in a low-pressure environment. […] The low-pressure environment is used to remove artifact-inducing air bubbles from within the tissue.
Data was acquired using a 10 mm birdcage coil in a vertical bore 14T magnet (Magnex Scientific, Oxford, England), with an 89-mm bore and 100 G/cm gradient coil. An inversion-recovery prepared spin-echo sequence and a multi-echo spin-echo sequence were used to determine T1 and T2, respectively. Parameters were estimated in three regions of interest (ROIs), outer gray matter (GMo), inner gray matter (GMi), and white matter (WM), using a nonlinear least-squares fitting routine using the following equations, a:
SIIR−SE=Mo(1−2αe^−TIIT^1)SISE∝Moe^−TEIT^2
where α represents flip angle deviation from 180° and Mo is the equilibrium magnetization.

Substance: Luxol fast blue [LFB]
- decrease of T1 in inner gray matter (GMi): 41%
- decrease of T1 in outer gray matter (GMo): 30%
- decrease of T1 in white matter (WM): 47%
